Experimental data reported in patent US20230081426A1, “COMPOUNDS AND METHODS FOR KRAS MODULATION AND INDICATIONS THEREFOR” (Plexxikon Inc., priority 2020, published 2023).

Tests used:
[1] = biological target: T1, G12D-mutant human KRAS (amino acid residues 1-188) (Homo sapiens, UniProt P01116, G12D); test: KRAS Binding Disruption Assay (AlphaScreen; biotinylated KRpep-2d analogue or RAF1-RBD), G12D; settings: KRAS G12D; geometric mean; read-out: KRAS GMean IC50 (uM) MUTATION: G12D
T1 construct: G12D or G12C-mutant human KRAS (amino acid residues 1-188) with FLAG tag; made in house; host or cells: E. coli
Procedure, shortened: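 Compounds are titrated against 5-20 nM mutant KRAS and 5-20 nM of either a biotinylated KRpep-2d analogue or RAF1-RBD, incubated 1 h at 25° C. Disruption is detected as reduced Alpha signal after 1 h with donor and acceptor beads at 10 μg/mL.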

[2] = biological target: T2, G12V-mutant human KRAS (amino acid residues 1-188) (Homo sapiens, UniProt P01116, G12V); test: KRAS Binding Competition Assay (AlphaScreen; biotinylated KRpep-2d analogue), G12V; settings: geometric mean, read-out: KRAS GMean IC50 (uM) MUTATION: G12V
T2 construct: G12V-mutant human KRAS (amino acid residues 1-188) with FLAG tag was purified from E. coli; made in house; host or cells: E. coli

| SMILES | IC50 [1] | IC50 [2] |
| --- | --- | --- |
| CN1CC[C@@H](NS(=O)(=O)N2[C@@H]3CC[C@H]2CN(c2nc(OCC45CCCN4CCC5)nc4c(F)c(-c5cc(O)cc6ccccc56)ccc24)C3)C1 [P-0282, (1R,5S)-3-(8-fluoro-7-(3-hydroxynaphthalen-1-yl)-2-((tetrahydro-1H-pyrrolizin-7a(5H)-yl)methoxy)quinazolin-4-yl)-N-((R)-1-methylpyrrolidin-3-yl)-3,8-diazabicyclo[3.2.1]octane-8-sulfonamide] | 0.0001 to 10 µM | 0.0001 to 10 µM |
| CN1CCC[C@H]1COc1nc(N2[C@@H]3CC[C@H]2CN(C(=O)Nc2cccnc2)C3)c2ccc(-c3cc(O)cc4ccccc34)cc2n1 [P-0210, (1R,5S)-8-(7-(3-hydroxynaphthalen-1-yl)-2-(((S)-1-methylpyrrolidin-2-yl)methoxy)quinazolin-4-yl)-N-(pyridin-3-yl)-3,8-diazabicyclo[3.2.1]octane-3-carboxamide] | 10 to 100 µM | 10 to 100 µM |
| CN1CCC[C@H]1COc1nc(N2[C@@H]3CC[C@H]2CN(CCO)C3)c2ccc(-c3cc(O)cc4ccccc34)cc2n1 [P-0145, 4-(4-((1R,5S)-3-(2-hydroxyethyl)-3,8-diazabicyclo[3.2.1]octan-8-yl)-2-(((S)-1-methylpyrrolidin-2-yl)methoxy)quinazolin-7-yl)naphthalen-2-ol] | 10 to 100 µM | 10 to 100 µM |
| CN1CCC[C@H]1COc1nc(N2C[C@H]3CC[C@@H](C2)N3)c2cc(F)c(-c3c[nH]c4cccc(Cl)c34)c(F)c2n1 [P-0309, 4-((1R,5S)-3,8-diazabicyclo[3.2.1]octan-3-yl)-7-(4-chloro-1H-indol-3-yl)-6,8-difluoro-2-(((S)-1-methylpyrrolidin-2-yl)methoxy)quinazoline] | 10 to 100 µM | 10 to 100 µM |
| CN1CCC[C@H]1COc1nc(N2C[C@H]3CC[C@@H](C2)N3)c2cc(Cl)c(-c3c[nH]c4ccccc34)c(F)c2n1 [P-0318, 4-((1R,5S)-3,8-diazabicyclo[3.2.1]octan-3-yl)-6-chloro-8-fluoro-7-(1H-indol-3-yl)-2-(((S)-1-methylpyrrolidin-2-yl)methoxy)quinazoline] | 0.0001 to 10 µM | 10 to 100 µM |
| Cc1cccc2c(Nc3c(F)cc4c(N5C[C@H]6CC[C@@H](C5)N6)nc(OC[C@@H]5CCCN5C)nc4c3F)n[nH]c12 [P-0457, 4-((1R,5S)-3,8-diazabicyclo[3.2.1]octan-3-yl)-6,8-difluoro-N-(7-methyl-1H-indazol-3-yl)-2-(((S)-1-methylpyrrolidin-2-yl)methoxy)quinazolin-7-amine] | 10 to 100 µM | 10 to 100 µM |
| CN(C)c1cccc(COc2nc(N3[C@@H]4CC[C@H]3CNC4)c3ccc(-c4cc(O)cc5ccccc45)cc3n2)c1 [P-0320, 4-(4-((1R,5S)-3,8-diazabicyclo[3.2.1]octan-8-yl)-2-((3-(dimethylamino)benzyl)oxy)quinaz-olin-7-yl)naphthalen-2-ol] | 0.0001 to 10 µM | 0.0001 to 10 µM |
| CCCc1nc(N2C[C@H]3CC[C@@H](C2)N3)c2ccc(-c3cc(O)cc4ccccc34)c(F)c2n1 [P-0455, 4-(4-((1R,5S)-3,8-diazabicyclo[3.2.1]octan-3-yl)-8-fluoro-2-propylquinazolin-7-yl)naphthalen-2-ol] | 0.0001 to 10 µM | 10 to 100 µM |
| CN1CCCC1COc1nc(N2C[C@H]3CC[C@@H](C2)N3C(=O)NO)c2ccc(-c3cc(O)cc4ccccc34)c(F)c2n1 (stereo partly drawn) [P-0422, (1R,5S)-3-(8-fluoro-7-(3-hydroxynaphthalen-1-yl)-2-((1-methylpyrrolidin-2-yl)methoxy)quinazolin-4-yl)-N-hydroxy-3,8-diazabicyclo[3.2.1]octane-8-carboxamide] | 0.0001 to 10 µM | 0.0001 to 10 µM |
| Cc1cccc(N)c1-c1ccc2c(N3C[C@H]4CC[C@@H](C3)N4)nc(OC[C@@H]3CCCN3C)nc2c1 [P-0343, 2-(4-((1R,5S)-3,8-diazabicyclo[3.2.1]octan-3-yl)-2-(((S)-1-methylpyrrolidin-2-yl)methoxy)quinazolin-7-yl)-3-methylaniline] | 10 to 100 µM | 10 to 100 µM |
| CN1CCC[C@H]1CNc1nc(N2C[C@H]3CC[C@@H](C2)N3)c2ccc(-c3cc(O)cc4ccccc34)cc2n1 [P-0016, 4-(4-((1R,5S)-3,8-diazabicyclo[3.2.1]octan-3-yl)-2-((((S)-1-methylpyrrolidin-2-yl)methyl)amino)quinazolin-7-yl)naphthalen-2-ol] | 0.0001 to 10 µM | 10 to 100 µM |
| CN1CCC[C@H]1COc1nc(N2[C@@H]3CC[C@H]2CN(C(=O)CNS(N)(=O)=O)C3)c2ccc(-c3cc(O)cc4ccccc34)cc2n1 [P-0316, N-(2-((1R,5S)-8-(7-(3-hydroxynaphthalen-1-yl)-2-(((S)-1-methylpyrrolidin-2-yl)methoxy)quinazolin-4-yl)-3,8-diazabicyclo[3.2.1]octan-3-yl)-2-oxoethyl)aminosulfonamide] | 10 to 100 µM | 10 to 100 µM |
| CN(C)S(=O)(=O)CC(=O)N1[C@@H]2CC[C@H]1CN(c1nc(OCC34CCCN3CCC4)nc3c(F)c(-c4cc(O)cc5ccccc45)ccc13)C2 [P-0410, 2-((1R,5S)-3-(8-fluoro-7-(3-hydroxynaphthalen-1-yl)-2-((tetrahydro-1H-pyrrolizin-7a(5H)-yl)methoxy)quinazolin-4-yl)-3,8-diazabicyclo[3.2.1]octan-8-yl)-N,N-dimethyl-2-oxoethane-1-sulfonamide] | 0.0001 to 10 µM | 0.0001 to 10 µM |
| Fc1cc2c(N3C[C@H]4CC[C@@H](C3)N4)nc(OCC34CCCN3CCC4)nc2c(F)c1-c1c[nH]c2ccccc12 [P-0372, 4-((1R,5S)-3,8-diazabicyclo[3.2.1]octan-3-yl)-6,8-difluoro-7-(1H-indol-3-yl)-2-((tetrahydro-1H-pyrrolizin-7a(5H)-yl)methoxy)quinazoline] | 0.0001 to 10 µM | 10 to 100 µM |
| CN1CCC[C@H]1COc1nc(N2C[C@H]3CC[C@@H](C2)N3C2CNC2)c2ccc(-c3cc(O)cc4ccccc34)c(F)c2n1 [P-0430, 4-(4-((1R,5S)-8-(azetidin-3-yl)-3,8-diazabicyclo[3.2.1]octan-3-yl)-8-fluoro-2-(((S)-1-methylpyrrolidin-2-yl)methoxy)quinazolin-7-yl)naphthalen-2-ol] | 10 to 100 µM | 100 to 1000 µM |
| CN1CCCC1COc1nc(N2C[C@H]3CC[C@@H](C2)N3C(=O)NC2CN3CCC2CC3)c2ccc(-c3cc(O)cc4ccccc34)c(F)c2n1 (stereo partly drawn) [P-0421, (1R,5S)-3-(8-fluoro-7-(3-hydroxynaphthalen-1-yl)-2-((1-methylpyrrolidin-2-yl)methoxy)quinazolin-4-yl)-N-(quinuclidin-3-yl)-3,8-diazabicyclo[3.2.1]octane-8-carboxamide] | 0.0001 to 10 µM | 10 to 100 µM |
| CN1CCC[C@H]1COc1nc(N2C[C@H]3CC[C@@H](C2)N3C(=O)[C@H]2CCCN2)c2ccc(-c3cc(O)cc4ccccc34)c(F)c2n1 [P-0403, 4-((1R,5S)-8-(D-prolyl)-3,8-diazabicyclo[3.2.1]octan-3-yl)-8-fluoro-7-(3-hydroxynaphthalen-1-yl)-2-(((S)-1-methylpyrrolidin-2-yl)methoxy)quinazoline] | 0.0001 to 10 µM | 10 to 100 µM |
| CN1CCC(Cc2nc(N3[C@@H]4CC[C@H]3CNC4)c3ccc(-c4cc(O)cc5ccccc45)cc3n2)CC1 [P-0201, 4-(4-((1R,5S)-3,8-diazabicyclo[3.2.1]octan-8-yl)-2-((1-methylpiperidin-4-yl)methyl)quinazolin-7-yl)naphthalen-2-ol] | 0.0001 to 10 µM | 10 to 100 µM |
| CN1CCC[C@H]1COc1nc(N2[C@@H]3CC[C@H]2CN(C(=O)[C@@H]2C[C@@H](O)CN2)C3)c2ccc(-c3cc(O)cc4ccccc34)cc2n1 [P-0204, ((1R,5S)-8-(7-(3-hydroxynaphthalen-1-yl)-2-(((S)-1-methylpyrrolidin-2-yl)methoxy)quinazolin-4-yl)-3,8-diazabicyclo[3.2.1]octan-3-yl)((2S,4R)-4-hydroxypyrrolidin-2-yl)methanone] | 10 to 100 µM | 10 to 100 µM |
| CN1CCC[C@H]1COc1nc(N2C[C@H]3CC[C@@H](C2)N3)c2ccc(-c3ccccc3O)cc2n1 [P-0169, 2-(4-((1R,5S)-3,8-diazabicyclo[3.2.1]octan-3-yl)-2-(((S)-1-methylpyrrolidin-2-yl)methoxy)quinazolin-7-yl)phenol] | 100 to 1000 µM | 100 to 1000 µM |
| COc1ccc2[nH]cc(-c3c(Cl)cc4c(N5C[C@H]6CC[C@@H](C5)N6)nc(OC[C@@H]5CCCN5C)nc4c3F)c2c1 [P-0319, 4-((1R,5S)-3,8-diazabicyclo[3.2.1]octan-3-yl)-6-chloro-8-fluoro-7-(5-methoxy-1H-indol-3-yl)-2-(((S)-1-methylpyrrolidin-2-yl)methoxy)quinazoline] | 0.0001 to 10 µM | 10 to 100 µM |
| CN1CCC[C@H]1COc1nc(N2[C@@H]3CC[C@H]2CNC3)c2ccc(-c3cccc4ccccc34)cc2n1 [P-0257, 4-((1R,5S)-3,8-diazabicyclo[3.2.1]octan-8-yl)-2-(((S)-1-methylpyrrolidin-2-yl)methoxy)-7-(naphthalen-1-yl)quinazoline] | 10 to 100 µM | 10 to 100 µM |
| Cc1n[nH]c(C)c1-c1ccc2c(N3C[C@H]4CC[C@@H](C3)N4)nc(OC[C@@H]3CCCN3C)nc2c1 [P-0176, 4-((1R,5S)-3,8-diazabicyclo[3.2.1]octan-3-yl)-7-(3,5-dimethyl-1H-pyrazol-4-yl)-2-(((S)-1-methylpyrrolidin-2-yl)methoxy)quinazoline] | 100 to 1000 µM | 100 to 1000 µM |
